Experimental data as given in ChEMBL document CHEMBL6092148, “Design, preparation and biological evaluation of new Rociletinib-inspired analogs as irreversible EGFR inhibitors to treat non-small-cell-lung cancer” (Bioorg Med Chem, 2024).

What was measured:
[1] = target: T1, Epidermal growth factor receptor (Homo sapiens, UniProt P00533)
Description: Inhibition of wild type EGFR (unknown origin) using poly (Glu:Tyr) as substrate incubated for 1 hr in presence of ATP by ADP-glo kinase assay

physchem = settings: 1-octanol/PBS, pH 7.4
[2] = Aqueous solubility of the compound in PBS buffer at PH 7.4 measured after 6 hrs by HPLC-UV analysis; format: physicochemical; settings: pH 7.4, 6 h
HepG2 = experiment: cells; settings: Homo sapiens, HepG2, 72 h
A-431 = experiment: cells; settings: Homo sapiens, A-431, 72 h
in vitro = settings: human, HepG2 cells and A549 cells
Description: Selectivity index, ratio of IC50 for human HepG2 cells to IC50 for human A549 cells

[3] = target: T2, Tyrosine-protein kinase JAK3 (Homo sapiens, UniProt P52333)
T2 sequence (P52333 whole entry): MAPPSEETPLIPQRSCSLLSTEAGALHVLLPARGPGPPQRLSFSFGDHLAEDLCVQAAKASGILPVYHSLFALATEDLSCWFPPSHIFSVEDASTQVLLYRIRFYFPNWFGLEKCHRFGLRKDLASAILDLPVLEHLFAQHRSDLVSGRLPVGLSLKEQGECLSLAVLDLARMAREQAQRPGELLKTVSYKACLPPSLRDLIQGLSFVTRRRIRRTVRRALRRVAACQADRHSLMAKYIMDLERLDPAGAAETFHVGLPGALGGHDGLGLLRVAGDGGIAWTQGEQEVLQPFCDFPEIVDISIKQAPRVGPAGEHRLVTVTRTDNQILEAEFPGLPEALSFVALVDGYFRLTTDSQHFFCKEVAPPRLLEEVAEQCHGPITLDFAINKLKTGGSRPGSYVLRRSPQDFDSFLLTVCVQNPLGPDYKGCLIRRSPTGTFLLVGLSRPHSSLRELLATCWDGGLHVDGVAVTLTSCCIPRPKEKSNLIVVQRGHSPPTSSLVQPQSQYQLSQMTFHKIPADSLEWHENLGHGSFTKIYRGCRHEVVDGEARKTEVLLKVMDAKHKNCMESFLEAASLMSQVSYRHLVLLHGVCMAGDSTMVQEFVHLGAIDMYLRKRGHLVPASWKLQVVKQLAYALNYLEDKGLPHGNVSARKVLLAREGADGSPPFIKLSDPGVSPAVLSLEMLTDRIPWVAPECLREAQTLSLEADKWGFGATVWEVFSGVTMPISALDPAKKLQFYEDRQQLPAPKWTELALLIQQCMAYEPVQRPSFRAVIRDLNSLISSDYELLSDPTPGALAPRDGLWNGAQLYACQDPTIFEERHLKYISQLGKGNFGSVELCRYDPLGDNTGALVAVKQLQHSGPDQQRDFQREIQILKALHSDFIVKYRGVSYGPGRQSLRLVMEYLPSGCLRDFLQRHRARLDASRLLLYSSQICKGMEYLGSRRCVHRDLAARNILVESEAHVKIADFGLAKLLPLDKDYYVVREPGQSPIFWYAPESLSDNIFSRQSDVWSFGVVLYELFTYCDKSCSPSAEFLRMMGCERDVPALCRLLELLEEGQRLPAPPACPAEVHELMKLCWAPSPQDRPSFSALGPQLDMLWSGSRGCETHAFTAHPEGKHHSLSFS
Description: Inhibition of JAK3 (unknown origin) using poly (Glu:Tyr) as substrate incubated for 1 hr in presence of ATP by ADP-glo kinase assay

[4] = target: T1, Epidermal growth factor receptor; remark: listed apart in the source
Description: Irreversible inhibition of wild type EGFR (unknown origin) assessed as inactivation constant

A549 = experiment: cells; settings: Homo sapiens, A549, 72 h
[5] = target: Epidermal growth factor receptor (Homo sapiens, UniProt P00533, L858R/T790M)
[6] = target: T1, Epidermal growth factor receptor; experiment: Binding affinity to wild type EGFR (unknown origin) assessed as inhibition constant
[7] = target: T1, Epidermal growth factor receptor; experiment: Potency index, ratio of rociletinib IC50 to test compound IC50 for inhibition of wild type EGFR (unknown origin)

Chain of Epidermal growth factor receptor (Homo sapiens, UniProt P00533, L858R/T790M) (P00533 25-1210 T790M/L858R limits assumed): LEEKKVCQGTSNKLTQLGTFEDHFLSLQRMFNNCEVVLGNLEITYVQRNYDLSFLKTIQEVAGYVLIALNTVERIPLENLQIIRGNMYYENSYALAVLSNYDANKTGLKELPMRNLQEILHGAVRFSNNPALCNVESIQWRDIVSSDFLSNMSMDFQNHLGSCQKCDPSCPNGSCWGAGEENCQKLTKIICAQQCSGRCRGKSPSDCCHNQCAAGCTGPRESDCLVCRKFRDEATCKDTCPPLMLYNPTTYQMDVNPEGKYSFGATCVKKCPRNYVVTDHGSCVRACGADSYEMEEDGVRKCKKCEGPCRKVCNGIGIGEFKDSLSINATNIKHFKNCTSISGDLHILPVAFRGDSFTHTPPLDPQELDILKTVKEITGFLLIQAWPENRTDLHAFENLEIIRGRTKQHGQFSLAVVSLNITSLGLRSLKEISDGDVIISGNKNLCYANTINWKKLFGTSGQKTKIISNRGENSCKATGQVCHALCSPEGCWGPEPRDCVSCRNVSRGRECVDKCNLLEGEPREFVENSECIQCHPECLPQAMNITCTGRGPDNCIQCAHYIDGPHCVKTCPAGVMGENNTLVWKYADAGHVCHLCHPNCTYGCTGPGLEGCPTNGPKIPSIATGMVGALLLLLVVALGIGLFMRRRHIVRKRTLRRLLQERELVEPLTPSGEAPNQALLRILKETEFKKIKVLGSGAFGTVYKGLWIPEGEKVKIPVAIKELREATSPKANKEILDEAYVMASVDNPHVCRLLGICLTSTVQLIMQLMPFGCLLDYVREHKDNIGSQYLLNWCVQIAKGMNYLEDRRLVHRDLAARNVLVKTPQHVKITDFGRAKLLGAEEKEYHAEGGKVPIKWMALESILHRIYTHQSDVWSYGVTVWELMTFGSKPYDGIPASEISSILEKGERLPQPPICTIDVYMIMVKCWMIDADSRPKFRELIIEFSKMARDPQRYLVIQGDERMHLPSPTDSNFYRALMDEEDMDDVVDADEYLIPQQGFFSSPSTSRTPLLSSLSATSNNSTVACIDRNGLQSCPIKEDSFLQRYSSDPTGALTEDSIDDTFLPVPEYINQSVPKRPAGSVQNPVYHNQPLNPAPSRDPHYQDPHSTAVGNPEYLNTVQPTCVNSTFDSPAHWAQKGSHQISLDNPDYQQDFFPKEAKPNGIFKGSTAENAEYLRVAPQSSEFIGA
T1 sequence (P00533 whole entry): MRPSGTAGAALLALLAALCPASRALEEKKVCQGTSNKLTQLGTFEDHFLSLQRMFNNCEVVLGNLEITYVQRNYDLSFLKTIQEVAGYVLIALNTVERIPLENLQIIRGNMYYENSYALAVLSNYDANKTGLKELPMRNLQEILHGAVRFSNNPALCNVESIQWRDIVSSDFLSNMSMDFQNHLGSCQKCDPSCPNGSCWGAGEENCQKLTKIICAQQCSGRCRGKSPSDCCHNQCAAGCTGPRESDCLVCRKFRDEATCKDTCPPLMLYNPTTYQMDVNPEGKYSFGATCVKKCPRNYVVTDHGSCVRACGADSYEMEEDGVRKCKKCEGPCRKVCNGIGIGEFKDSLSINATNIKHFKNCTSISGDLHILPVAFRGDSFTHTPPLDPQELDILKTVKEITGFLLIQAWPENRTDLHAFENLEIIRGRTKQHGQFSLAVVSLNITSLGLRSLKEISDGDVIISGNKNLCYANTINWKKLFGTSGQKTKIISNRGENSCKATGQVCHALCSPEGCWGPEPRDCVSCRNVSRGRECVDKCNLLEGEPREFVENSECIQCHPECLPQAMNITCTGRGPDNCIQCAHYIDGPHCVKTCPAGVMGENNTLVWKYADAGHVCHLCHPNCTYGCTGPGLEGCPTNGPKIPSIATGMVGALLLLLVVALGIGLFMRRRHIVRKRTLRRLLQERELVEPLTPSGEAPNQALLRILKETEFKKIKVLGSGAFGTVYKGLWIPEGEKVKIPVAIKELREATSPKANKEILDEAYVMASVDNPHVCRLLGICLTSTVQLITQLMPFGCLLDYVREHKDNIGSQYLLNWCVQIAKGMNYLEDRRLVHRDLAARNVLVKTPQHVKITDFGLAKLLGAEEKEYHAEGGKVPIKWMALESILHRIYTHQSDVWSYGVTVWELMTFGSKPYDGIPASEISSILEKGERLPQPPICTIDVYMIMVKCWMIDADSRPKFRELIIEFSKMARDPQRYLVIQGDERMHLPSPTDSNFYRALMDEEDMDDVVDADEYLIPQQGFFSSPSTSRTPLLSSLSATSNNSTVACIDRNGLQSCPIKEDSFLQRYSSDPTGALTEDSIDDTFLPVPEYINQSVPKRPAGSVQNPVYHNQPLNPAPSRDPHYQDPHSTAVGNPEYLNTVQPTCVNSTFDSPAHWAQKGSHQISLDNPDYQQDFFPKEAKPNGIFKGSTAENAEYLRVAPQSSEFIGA

Structure (SMILES)	IC50 [1]	logD at 6 h (physchem)	solubility [2]	IC50 (HepG2)	IC50 (A-431)	IC50 (A549)	IC50 [5]	selectivity ratio (in vitro)	other results
CCC(=O)Nc1cccc(Nc2nc(Nc3ccc(N4CCN(C(C)=O)CC4)cc3OC)ncc2Cl)c1	0.0629 µM	–	–	–	–	–	–	–	–
C=CC(=O)Nc1cccc(Nc2nc(Nc3cnn(C)c3)ncc2Cl)c1	0.174 µM	2.86	109 µg	3.25 µM	6.39 µM	0.79 µM	0.0207 µM	4.11	IC50 [3]: 0.0695 µM; Kinact [4]: 6.16 10^-1/s; Ki [6]: 3810 µM
C=CC(=O)Nc1cccc(Nc2nc(Nc3ccc(N4CCN(C(C)=O)CC4)cc3OC)ncc2Cl)c1	0.0876 µM	–	–	–	–	–	–	–	–
Cn1cc(Nc2ncc(Cl)c(Nc3cccc(NC(=O)/C=C/c4ccccc4)c3)n2)cn1	0.0448 µM	4.18	1.35 µg	3.65 µM	10.5 µM	1.48 µM	0.0228 µM	2.46	IC50 [3]: 0.008 µM
C=CC(=O)Nc1cccc(Nc2nc(Nc3ccc(N4CCN(C(C)=O)CC4)cc3OC)ncc2C(F)(F)F)c1 [ROCILETINIB]	–	3.18	221 µg	7.39 µM	0.32 µM	0.2 µM	–	–	IC50 [3]: 0.0043 µM
C=CC(=O)Nc1cc(Nc2nccc(-c3cn(C)c4ccccc34)n2)c(OC)cc1N(C)CCN(C)C [OSIMERTINIB]	–	3.43	30.1 µg	3.65 µM	[…]	10.2 µM	–	–	IC50 [3]: 0.0353 µM
C=CC(=O)Nc1cccc(Nc2nc(Nc3ccc(N4CCN(C(C)=O)CC4)cc3)ncc2Cl)c1	0.0436 µM	3.18	13.4 µg	1.07 µM	3.47 µM	0.23 µM	0.0697 µM	4.65	–
CC(=O)N1CCN(c2ccc(Nc3ncc(Cl)c(Nc4cccc(NC(=O)/C=C/c5ccccc5)c4)n3)cc2)CC1	0.0878 µM	–	–	–	–	–	–	–	–
Cc1c2ccc(Nc3ncc(Cl)c(Nc4cccc(NC(=O)/C=C/c5ccccc5)c4)n3)cc2nn1C	0.0656 µM	–	–	–	–	–	–	–	–
COc1cc(N2CCN(C(C)=O)CC2)ccc1Nc1ncc(Cl)c(Nc2cccc(NC(=O)/C=C/c3ccccc3)c2)n1	0.058 µM	–	–	–	–	–	–	–	–

The next lines start with results.

IC50 [1]	logD at 6 h (physchem)	solubility [2]	IC50 (HepG2)	IC50 (A-431)	IC50 (A549)	IC50 [5]	Structure (SMILES)	selectivity ratio (in vitro)	other results
0.0635 µM	–	–	–	–	–	–	C=CC(=O)Nc1cccc(Nc2nc(Nc3ccc4[nH]c(=O)oc4c3)ncc2Cl)c1	–	–
0.0226 µM	3.67	8.65 µg	12.6 µM	7.05 µM	5.78 µM	0.0568 µM	COc1cc(N2CCN(C(C)=O)CC2)ccc1Nc1ncc(Cl)c(Nc2cccc(NC(=O)CCl)c2)n1	2.18	Ratio IC50 [7]: 28
0.116 µM	–	–	–	–	–	–	CCC(=O)Nc1cccc(Nc2nc(Nc3ccc4[nH]c(=O)oc4c3)ncc2Cl)c1	–	–
0.114 µM	–	–	–	–	–	–	CC(=O)N1CCN(c2ccc(Nc3ncc(Cl)c(Nc4cccc(NC(=O)CCl)c4)n3)cc2)CC1	–	–
0.0767 µM	–	–	–	–	–	–	O=C(/C=C/c1ccccc1)Nc1cccc(Nc2nc(Nc3ccc4[nH]c(=O)oc4c3)ncc2Cl)c1	–	–
0.0978 µM	–	–	–	–	–	–	C=CC(=O)Nc1cccc(Nc2nc(Nc3ccc4c(C)n(C)nc4c3)ncc2Cl)c1	–	–
0.0592 µM	–	–	–	–	–	–	CCC(=O)Nc1cccc(Nc2nc(Nc3ccc4c(C)n(C)nc4c3)ncc2Cl)c1	–	–
0.0659 µM	–	–	–	–	–	–	CCC(=O)Nc1cccc(Nc2nc(Nc3ccc(N4CCN(C(C)=O)CC4)cc3)ncc2Cl)c1	–	–
0.0416 µM	2.6	183 µg	4.3 µM	3.7 µM	2.78 µM	0.0478 µM	Cn1cc(Nc2ncc(Cl)c(Nc3cccc(NC(=O)CCl)c3)n2)cn1	1.54	IC50 [3]: 0.911 µM
0.0431 µM	3.51	15.4 µg	7.06 µM	7.49 µM	7.29 µM	0.0632 µM	O=C(CCl)Nc1cccc(Nc2nc(Nc3ccc4[nH]c(=O)oc4c3)ncc2Cl)c1	0.96	–
0.0789 µM	–	–	–	–	–	–	Cc1c2ccc(Nc3ncc(Cl)c(Nc4cccc(NC(=O)CCl)c4)n3)cc2nn1C	–	–
0.035 µM	2.67	80.1 µg	28.3 µM	11.2 µM	2.77 µM	0.0189 µM	CCC(=O)Nc1cccc(Nc2nc(Nc3cnn(C)c3)ncc2Cl)c1	10.2	IC50 [3]: 0.0317 µM
